In one assay the test system is isolated gallbladder. Briefly: CCK-antagonism in isolated gallbladder (contraction induced by CCK-8). The format is cell-based, male Hartley guinea-pig. As to conditions: Cavia porcellus; guinea-pig gallbladder strips, Krebs solution 37° C.; contraction induced by 10^-8 M CCK-8. The method, then:
CCK-antagonism in isolated gallbladder
Gallbladder strips isolated from male Hartley guinea-pig were prepared and suspended in Magnus bath filled with Krebs solution (1 g of initial tension). The solution kept at 37° C. was aerated with a mixture of 95% O2 and 5% CO2. The isometric contraction of strips was recorded through a force-displacement transducer. Antagonism by test drugs against gallbladder contraction induced by 10^-8 M CCK-8 was examined and IC50 value was calculated.

In another assay the target is T1, CCK-receptor (Rattus norvegicus, UniProt P30551).
T1 construct: Pancreatic plasma membranes were prepared by the method of Chang et al; from tissue; host or cells: pancreas of male Wistar rats (pancreatic plasma membranes)
T1 sequence (P30551 1-444): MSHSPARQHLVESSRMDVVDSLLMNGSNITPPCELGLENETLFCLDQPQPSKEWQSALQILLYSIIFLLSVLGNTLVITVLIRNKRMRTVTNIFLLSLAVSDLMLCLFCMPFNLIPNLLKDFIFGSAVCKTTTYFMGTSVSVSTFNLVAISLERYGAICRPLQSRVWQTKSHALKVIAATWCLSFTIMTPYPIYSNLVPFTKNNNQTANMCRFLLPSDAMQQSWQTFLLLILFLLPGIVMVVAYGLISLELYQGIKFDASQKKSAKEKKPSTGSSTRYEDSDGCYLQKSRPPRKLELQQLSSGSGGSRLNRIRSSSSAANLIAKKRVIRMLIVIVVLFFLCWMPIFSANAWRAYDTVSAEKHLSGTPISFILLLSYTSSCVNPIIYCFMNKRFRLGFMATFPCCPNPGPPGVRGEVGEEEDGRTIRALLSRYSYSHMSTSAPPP
Nature of the assay: CCK-receptor binding assay in pancreas (125I-CCK-8, pancreatic plasma membranes). On the set-up: species or system Male Wistar rats. The following applies: 30 pM 125I-CCK-8, rat pancreatic plasma membranes, 37° C., 30 minutes; inhibition of specific binding. How it is done:
CCK-receptor binding assay in pancreas
Pancreatic plasma membranes were prepared by the method of Chang et al. (Molecular Pharmacology, Vol. 30, p. 212-, 1986). Male Wistar rats were sacrificed by decapitation and the pancreas was removed. The pancreas was dissected free from adipose tissue and minced in 50 volumes ice-cold Tris-HCl buffer (50 mM, pH 7.4 at 37° C.). Homogenization was performed using ultra disperser and the homogenate was centrifuged at 50,000×g for 10 minutes. The pellet was washed by resuspension in the same volume of fresh Tris-HCl buffer and again centrifuged as above. The final pellet was suspended in assay buffer (50 mM Tris-HCl, 5 mM MgCl2, 5 mM dithiothreitol, 2 mg/ml of bovine serum albumin, and 0.14 mg/ml of bacitracin), and used as receptor sources for binding assay.
Thirty pM ^125 I-CCK-8 (final concentration), test drug or vehicle (for total binding) or 10^-6 M CCK-8 (for nonspecific binding) were added to the assay medium containing pancreatic plasma membranes (0.5 mg of original wet weight/ml). After incubation at 37° C. for 30 minutes, the assay medium was filtrated under reduced pressure through glass fiber filter and washed four times with 4 ml of ice-cold Tris-HCl buffer. The radioactivity trapped on the filter was counted by γ-counter (Packard 5650).
Specific binding was defined as the radioactivity bound after subtracting nonspecific binding determined in the presense of 10^-6 M unlabeled CCK-8. IC50 value was calculated from inhibition percentage of specific binding by each test drug.

The next assay deals with amylase secretion. Nature of the assay: Effect on amylase secretion in rats (stimulated by CCK-8). The format is in vivo, Male Wistar rats. As to conditions: Rattus norvegicus; intraduodenal, 30 minutes before subcutaneous CCK-8 (10 μg/kg); urethane-anesthetized rats. How it is done:
Effect on amylase secretion in rats
Male Wistar rats were anesthetized with urethane (1.5 g/kg, S.C.), and tracheal cannula was inserted. Biliopancreatic juice was collected from the cannula which had been inserted into the common bile duct. Thirty minutes after intraduodenal administration of test drug, amylase secretion was stimulated by subcutaneous injection of CCK-8 (10 μg/kg). Amylase concentration in the sample collected every 30 minutes during experiment was assayed using Amylase B Test (Wako), and ED50 value was calculated.

With `CCCCCN(CCCOC)C(=O)C(CCC(=O)O)CS(=O)(=O)c1ccc2ccccc2c1` (single isomer, unassigned; (-)) [compound 22, (-)-4-[N-(3-methoxypropyl)-N-pentylcarbamoyl]-5-(2-naphthylsulfonyl)pentanoic acid], the IC50 was 2.8 µM in the assay on isolated gallbladder and 0.12 µM at CCK-receptor.
In turn, `CCCCCN(CC(=O)N(C(C)C)C(C)C)C(=O)C(CCC(=O)O)CS(=O)(=O)c1ccc2ccccc2c1` (stereo not shown) [compound 29] had an IC50 at CCK-receptor of 2.3 µM.
Same read-out and setting: then `CCOC(=O)CN(CC(=O)OCC)C(=O)C(CCC(=O)OCc1ccccc1)CS(=O)(=O)c1ccc2ccccc2c1` (stereo not shown) [compound 36, benzyl 4-[N,N-bis(ethoxycarbonylmethyl)carbamoyl]-5-(2-naphthylsulfonyl)pentanoate], with 6.5 µM; and `CCCCCN(CCOC(=O)C(C)(C)C)C(=O)C(CCC(=O)O)CS(=O)(=O)c1ccc2ccccc2c1` (stereo not shown) [compound 52], with 0.19 µM.
`CCCCCN(CC(=O)OCC)C(=O)C(CCC(=O)O)CS(=O)(=O)c1ccc2ccccc2c1` (stereo not shown) [Compound No. 19, 4-(N-Ethoxycarbonylmethyl-N-pentylcarbamoyl)-5-(2-naphthylsulfonyl)pentanoic acid] registered an ED50 in the assay on amylase secretion of 33.3 mg/kg. Further, the values for the IC50 in the assay with isolated gallbladder and at CCK-receptor were 2.1 µM and 0.32 µM, respectively.
For `CCCCCN(CCCCC)C(=O)C(CCC(=O)O)CS(=O)(=O)c1ccc2ccccc2c1` (stereo not shown) [compound 20], in that order: 9.6 mg/kg, 2.6 µM and 0.029 µM.
Compound `CCCCCN(CC(=O)O)C(=O)C(CCC(=O)O)CS(=O)(=O)c1ccc2ccccc2c1` (stereo not shown) [compound 33] gave an IC50 on CCK-receptor of 3.4 µM. This counts as single-digit micromolar.
Still for that read-out and setting: then `CCCCCN(CCCOC)C(=O)C(CCC(=O)O)CS(=O)(=O)c1ccc2ccccc2c1` (single isomer, unassigned) [compound 23], with 3.3 µM.
In the assay with amylase secretion, `CCCCCN(CC(=O)OC(C)(C)C)C(=O)C(CCC(=O)O)CS(=O)(=O)c1ccc2ccccc2c1` (stereo not shown) [compound 25] returned an ED50 of 8 mg/kg. Besides, on CCK-receptor, the IC50 amounted to 0.049 µM.
On CCK-receptor, `CCCCCN(CC(=O)OCC)C(=O)C(CCC(=O)OC)CS(=O)(=O)c1ccc2ccccc2c1` (racemic) [compound 7, methyl 4-(N-ethoxycarbonylmethyl-N-pentylcarbamoyl)-5-(2-naphthylsulfonyl)pentanoate] returned a half-maximal inhibitory concentration (IC50) of 1.7 µM.
The same measure, in the same setting: then `CCCCCN(CC(=O)NC1CCCCC1)C(=O)C(CCC(=O)O)CS(=O)(=O)c1ccc2ccccc2c1` (stereo not shown) [compound 31], with 2 µM; and `C=CCOCCN(CCOCC=C)C(=O)C(CCC(=O)OC)CS(=O)(=O)c1ccc2ccccc2c1` (stereo not shown) [compound 37], with 3.1 µM; and `CCCCCN(CCOC(C)=O)C(=O)C(CCC(=O)O)CS(=O)(=O)c1ccc2ccccc2c1` (stereo not shown) [Compound No. 50, 4-[N-(2-Acetoxyethyl)-N-pentylcarbamoyl]-5-(2-naphtylsulfonyl)pentanoic acid], with 0.2 µM.
On the same count and under the same terms, the value for `CCOC(=O)CN(CCCOC)C(=O)C(CCC(=O)OCc1ccccc1)CS(=O)(=O)c1ccc2ccccc2c1` (stereo not shown) [compound 38] was 0.11 µM.
On to `CCCCCN(CC(=O)N1CCCC1)C(=O)C(CCC(=O)O)CS(=O)(=O)c1ccc2ccccc2c1` (stereo not shown) [compound 55], for which the half-maximal inhibitory concentration (IC50) at CCK-receptor was determined as 0.9 µM.
On the same count and under the same terms, the value for `CCCCCN(CCCCC)C(=O)C(CC(=O)O)CS(=O)(=O)c1ccc2ccccc2c1` (stereo not shown) [compound 32] was 0.29 µM; that for `CCCCCN(CC(=O)OCC)C(=O)C(CCC(=O)OCc1ccccc1)CS(=O)(=O)c1ccc2ccccc2c1` (racemic) [compound 6, benzyl 4-(N-ethoxycarbonylmethyl-N-pentylcarbamoyl)-5-(2-naphthylsulfonyl)pentanoate] was 1.7 µM; that for `CCCCCN(CC(=O)N1CCOCC1)C(=O)C(CCC(=O)O)CS(=O)(=O)c1ccc2ccccc2c1` (stereo not shown) [compound 54] was 0.61 µM.
`CCCCCN(CCCOC)C(=O)C(CCC(=O)O)CS(=O)(=O)c1ccc2ccccc2c1` (stereo not shown) [Compound No. 18, 4-[N-(3-Methoxypropyl)-N-pentylcarbamoyl]-5-(2-naphthylsulfonyl)pentanoic acid] came in with a 50% effective dose (ED50) in the assay with amylase secretion of 15.7 mg/kg. In addition, the IC50 was 6.8 µM in the assay on isolated gallbladder and 0.34 µM on CCK-receptor.
As to `CCCCCN(CC(=O)N(C)C)C(=O)C(CCC(=O)O)CS(=O)(=O)c1ccc2ccccc2c1` (stereo not shown) [compound 27], the IC50 on CCK-receptor amounted to 2.2 µM.
The compound `COC(=O)CCC(CS(=O)(=O)c1ccc2ccccc2c1)C(=O)N(CCC1CCCCC1)CCC1CCCCC1` (stereo not shown) [Compound No. 34, Methyl 4-[N,N-bis(2-cyclohexylethyl)carbamoyl]-5-(2-naphthylsulfonyl)pentanoate] had an IC50 at CCK-receptor of 1.7 µM.
`CCCCCN(CCCN1CCCC1=O)C(=O)C(CCC(=O)O)CS(=O)(=O)c1ccc2ccccc2c1` (stereo not shown) [compound 53]: the IC50 at CCK-receptor came to 0.22 µM. This IC50 lies about 7.7-fold lower than the previous one.
Take `CCCCCN(CC(=O)NC(C)C)C(=O)C(CCC(=O)O)CS(=O)(=O)c1ccc2ccccc2c1` (stereo not shown) [compound 30]: at CCK-receptor, the IC50 came to 4.1 µM. This IC50 lies about 19-fold higher than the previous one.
Consider `CCCCCN(CC(=O)O)C(=O)C(CCC(=O)OC)CS(=O)(=O)c1ccc2ccccc2c1` (stereo not shown) [Compound No. 15, N-[2-(2-Methoxycarbonylethyl)-3-(2-naphthylsulfonyl)propionyl]-N-pentylglycine], for which the IC50 on CCK-receptor turned out to be 7.3 µM.
At CCK-receptor, `CCCCCN(CC(=O)OC(C)(C)C)C(=O)C(CCC(=O)O)CS(=O)(=O)c1ccc2ccccc2c1` (single isomer, unassigned) [compound 26] had an IC50 of 0.025 µM.
On the same count and under the same terms, then `CC(=O)OCCN(CCOC(C)=O)C(=O)C(CCC(=O)OCc1ccccc1)CS(=O)(=O)c1ccc2ccccc2c1` (stereo not shown) [compound 35], with 4 µM.
In the case of `CCCCCN(CCC(=O)OCC)C(=O)C(CCC(=O)O)CS(=O)(=O)c1ccc2ccccc2c1` (stereo not shown) [compound 21], the IC50 in the assay on isolated gallbladder stood at 2.9 µM; at CCK-receptor, 0.4 µM.
`O=C(O)CCC(CS(=O)(=O)c1ccc2ccccc2c1)C(=O)N(CCC1CCCCC1)CCC1CCCCC1` (stereo not shown) [Compound No. 39, 4-[N,N-Bis(2-cyclohexylethyl)carbamoyl]-5-(2-naphthylsulfonyl)pentanoic acid] gave an IC50 on CCK-receptor of 1.8 µM. That is a single-digit micromolar value.
For the compound `C=CCOCCN(CCOCC=C)C(=O)C(CCC(=O)O)CS(=O)(=O)c1ccc2ccccc2c1` (stereo not shown) [compound 41], on CCK-receptor, the IC50 worked out at 1.4 µM.
The same measure, in the same setting: then `CCCCCN(CC(=O)N1CCCCC1)C(=O)C(CCC(=O)O)CS(=O)(=O)c1ccc2ccccc2c1` (stereo not shown) [Compound No. 51, 5-(2-Naphthylsulfonyl)-4-(N-pentyl-N-piperidinocarbonylmethylcarbamoyl)pentanoic acid], with 0.4 µM; and `CCOC(=O)CN(CC(=O)OCC)C(=O)C(CCC(=O)O)CS(=O)(=O)c1ccc2ccccc2c1` (stereo not shown) [compound 40, 4-[N,N-Bis(ethoxycarbonylmethyl)carbamoyl]-5-(2-naphthylsulfonyl)pentanoic acid], with 2.1 µM.
The same measure, in the same setting: the value for `CCCCCN(CC(=O)OC(C)C)C(=O)C(CCC(=O)O)CS(=O)(=O)c1ccc2ccccc2c1` (stereo not shown) [compound 24] was 0.044 µM.
The same measure, in the same setting: the value for `CCCCCN(CC(=O)N(CC)CC)C(=O)C(CCC(=O)O)CS(=O)(=O)c1ccc2ccccc2c1` (stereo not shown) [compound 28] was 0.21 µM.
Compound `CCCCCN(CCCOC)C(=O)C(CCC(=O)OC)CS(=O)(=O)c1ccc2ccccc2c1` (racemic) [Compound No. 3, methyl 4-[N-(3-methoxypropyl)-N-pentylcarbamoyl]-5-(2-naphthylsulfonyl)pentanoate] displayed an IC50 on CCK-receptor of 2.4 µM. Against the preceding compound, the IC50 is about 11-fold higher.

For the origin of these results see patent publication US5177069A, “Naphthysulfonylalkanoic acid compounds and pharmaceutical compositions thereof” (Kissei Pharmaceutical Co., Ltd., priority 1989, dated 1993).
